Measured values from patent publication US10517952B2, “Nucleophile-triggered degradable materials and methods of making and using the same” (GEORGIA TECH RESEARCH CORPORATION, priority 2014, dated 2019).

Assays:
Assay type in all cases: physicochemical
[1] = Equilibrium swelling, gel fraction and Mc (Flory-Rehner) of PEG-OND hydrogels; conditions: for Mc (apparent molecular weight between elastic crosslinks): calculated with the Flory-Rehner equation from swelling results; for Gel Fraction: mass of dry residue post-swelling/input mass of OND and 4-PEG-SH; for Equilibrium Swelling Ratio: mass post-swelling/mass pre-swelling, deionized water, 4° C., 24 hours, n = 3 gels
Protocol: The swelling of the PEG-OND hydrogels in deionized water was measured at 4° C. to prevent significant fragmentation during the experiment. […] An independent experiment measuring soluble fraction thiol content yielded results complementing those obtained gravimetrically (Table S3, and related discussion below). With the knowledge that small molecules can readily permeate swollen PEG-OND hydrogels (see below), detecting and modifying residual thiols in gels prepared from divalent linkers 7a and 8 by swelling in the presence of a fluorogenic OND derivative was attempted (FIG. 15, and related discussion below).
200 μL gels were prepared in pH 7.4 100 mM phosphate buffered saline containing 7% DMSO with 3.5 wt % 4-PEG-SH and the corresponding bis-, tris-, and tetra-ONDs to provide a 1:1 thiol to electrophile ratio, and allowed to cure for 20 minutes at room temperature. The mass of the gels after curing was recorded (Meq) before suspending in 5.5 mL of water. The hydrogels were stored at 4° C. during swelling to prevent significant degradation of the network during the experiment. The increase in mass of the gels was monitored periodically by decanting and blotting the gel gently with a kimwipe to remove excess water before weighing. After 24 hours swelling, when swelling had stabilized, the mass of the gel was recorded (Meq). The equilibrium mass swelling ratio was then determined using the following relationship:
After weighing equilibrium-swelled gels to determine equilibrium mass swelling ratio, the gels were freeze-dried and the residual mass was weighed (Mres). It is expected that buffer salts present in the sample when it was formed were removed by the multiple changes of swelling solvent (pure water). The mass of the remaining residue was compared to the input mass (Min) of 4-PEG-SH macromer and OND-based linker. The ratio of the residual mass and the input mass provides the fraction of material by mass incorporated into the hydrogel network (gel fraction), as shown in the following equation: […]
The apparent molecular weight between elastically-productive crosslinks (Mc) was determined from equilibrium swelling data, collected as described in section VII.1 and applying a modified form of the Flory-Rehner equation for networks formed under dilute conditions:
[formula] where Mn is the number average molecular weight for the polymeric macromer (10,000 g/mol), v is the specific volume of the polymer ([…] for PEG) V1 is the molar volume of solvent used for swelling ([…] for water), χ is the polymer-interaction parameter (0.43 for PEG-H2O and assumed constant for the described experiments). V2, and V2, are the volume fraction of polymer in the equilibrium swollen gel and the relaxed gel after curing, respectively, and are calculated as follows:
[formula] where qw is the weight swelling ratio after equilibrium swelling, qF is the weight swelling ratio after curing, ρp is the density of the polymer (1.12 g/cm^3 for PEG), ρwater=ρcure solvent is the density of swelling solvent and solvent during gel formation (1.00 g/cm^3 for water). The weight swelling ratios qw and qF are determined from data gathered in equilibrium swelling experiments using the following relationships:
[formula] where ms is the mass of the gel after equilibrium swelling, mc is the mass of the gel after curing, and md is the mass of the dried gel, or input mass of polymer and crosslinkers.
Using the formulae above, masses of hydrogel samples recorded after equilibrium swelling, curing, and drying were applied to estimate the apparent molecular weight between crosslinks, which are summarized in Table 1 of the main text. The experimentally observed Mc values for gels formed using divalent OND linkers was lower than theoretical ideal value Mc,ideal. This can be explained by the fact that the Mc,ideal values calculated for these gels (entries 1-5 of Table S1) are greater than the entanglement molecular weight for polyethylene glycol (˜4,400 g/mol). […]

[2] = Calculation of hydrogel mesh size from equilibrium swelling data; conditions: equilibrium-swollen gels
Protocol: Using the calculated molecular weight between crosslinks, Mc, and the method previously described by Canal and Peppas, the hydrogel mesh size was calculated. First, the root-mean-square end-to-end distance of the polymer chains in the network, (r0^2)^1/2, was calculated as follows: (r0^2)^1/2=lCn^1/2n^1/2 (Equation S10) where l is the average bond length in the polymer (0.146 nm for PEG) and Cn is the characteristic ratio of the polymer (4.0 for PEG). The average number of bonds between crosslinks, n is calculated using the following equation:
[formula] where Mc is the average molecular weight between crosslinks, calculated as described in the previous section, and Mr is the molecular weight of the repeating unit for the PEG macromer (44 g/mol). Finally, the mesh size, ξ, is calculated using the following relationship: ξ=v2,s^−1/3(r0^2)^1/2 (Equation S12) where v2, is the partial volume of polymer in the equilibrium swollen hydrogel, and is calculated using the experimentally determined equilibrium weight swelling ratios.

[3] = Erosion of swollen hydrogels (BODIPY erosion probe, time-lapse photography); conditions: 37° C., erosion probe
Text: Degradation behavior of PEG-OND hydrogels under swelling conditions was investigated by labeling 3% of the 4-PEG-SH thiols with a BODIPY fluorophore via maleimide coupling before gelation. Gels prepared from this material are expected to have slightly lower crosslink densities and to degrade sooner when compared to gels formed without the erosion probe (FIG. 19). However, the probe-labeled macromer allowed convenient monitoring and comparison of erosion behavior under conditions relevant for biological applications. An increase in absorbance (504 nm) of the swelling buffer was observed as pieces containing the labeled PEG-thiol components were detached from the gel by rDA fragmentation (FIG. 2). […] Using combinations of linkers, it was possible to produce hydrogels with release profiles tuned between those of gels prepared from a single linker (FIG. 2C).
The 3.76 wt % solution of BODIPY-labeled 4-PEG-SH prepared above was used to form hydrogels using a method identical to unlabeled gels. Briefly, BODIPY-labeled 4-PEG-SH was combined with DMSO stocks of multivalent ONDs at equimolar concentration of thiol and electrophile. […] The absorbance of the supernatant at 504 nm was measured immediately to obtain a baseline measurement (t=0 hours), and the samples were placed into a 37° C. incubator. The absorbance of the swelling supernatant was monitored periodically by removal of 1 mL of buffer into a cuvette and measuring absorbance of the sample at 504 nm. […] This process was repeated for each sample until gel degradation was complete and the absorbance at 504 nm stabilized (100% dye released). In order to estimate the fraction of dye released from the non-degradable gel formed with bi s-EONB 8, a mock endpoint sample consisting of BODIPY-labeled 4-PEG-SH diluted to 3.5 wt % was prepared, and the absorbance at 504 nm was measured. […] The absorbance values collected over the course of the experiment were divided by the absorbance value measured after gel disintegration to obtain fractional dye release versus time. […]
The time at which the glass bead reached the bottom of the tube was recorded. […]

Mc (apparent molecular weight between elastic crosslinks) [1]	Gel Fraction [1]	Equilibrium Swelling Ratio [1]	Calculated mesh size [2]	Gel stability under swelling conditions compared with gels from divalent ONDs [3]	SMILES
3846 ± 102 g/mol	0.98 ± 0.08	1.54 ± 0.07	13.7 ± 1.3 nm	more stable gels	COC(=O)C1=C(C(=O)OC)C2(CNC(=O)CC(O)(CC(=O)NCC34C=CC(O3)C(C(=O)OC)=C4C(=O)OC)C(=O)NCC34C=CC(O3)C(C(=O)OC)=C4C(=O)OC)C=CC1O2 (stereo not shown) [Linker 11, Tetramethyl 1,1′-(((2-(2-(((2,3-bis(methoxycarbonyl)-7-oxabicyclo[2.2.1]hepta-2,5-dien-1-yl)methyl)amino)-2-oxoethyl)-2-hydroxysuccinyl)bis(azanediyl))bis (methylene))bis(7′-oxabicyclo[2.2.1]hepta-2,5-diene-2,3-dicarboxylate)]
3740 ± 95 g/mol	0.96 ± 0.05	1.44 ± 0.08	13.3 ± 0.9 nm	more stable gels	COC(=O)C1=C(C(=O)OC)C2(CNC(=O)CCOCC(COCCC(=O)NCC34C=CC(O3)C(C(=O)OC)=C4C(=O)OC)(COCCC(=O)NCC34C=CC(O3)C(C(=O)OC)=C4C(=O)OC)COCCC(=O)NCC34C=CC(O3)C(C(=O)OC)=C4C(=O)OC)C=CC1O2 (stereo not shown) [Linker 12, Tetramethyl 1,1′-(8,8-bis((3-(((2,3-bis(methoxycarbonyl)-7-oxabicyclo[2.2.1]hepta-2,5-dien-1-yl)methyl)amino)-3-oxopropoxy)methyl)-3,13-dioxo-6,10-dioxa-2,14-diazapentadecane-1,15-diyl)bis(7-oxabicyclo[2.2.1]hepta-2,5-diene-2,3-dicarboxylate)]
